The results in this text go back to ChEMBL document CHEMBL2202954, “The effect of PLC-γ2 inhibitors on the growth of human tumour cells” (2012).

Common to all, as to assay type: functional
Assay [1] relates to HL-60(TB). Description: Cytotoxicity against human HL-60(TB) cells assessed as cellular growth at 10 uM by SRB assay. A general note: In SRB staining, fixed cells bind dye roughly in proportion to their protein.
Assay [2] has as its system SW-620. Description: Cytotoxicity against human SW620 cells assessed as cellular growth at 10 uM by SRB assay.
Assay [3] relates to M14. Description: Cytotoxicity against human M14 cells assessed as cellular growth at 10 uM by SRB assay.
The test system of assay [4] is HOP-62. Description: Cytotoxicity against human HOP62 cells assessed as cellular growth at 10 uM by SRB assay.
Assay [5] concerns SF-539. Description: Cytotoxicity against human SF539 cells assessed as cellular growth at 10 uM by SRB assay.
Assay [6] deals with CAKI-1. Description: Cytotoxicity against human Caki1 cells assessed as cellular growth at 10 uM by SRB assay.
In assay [7] the test system is ACHN. Description: Cytotoxicity against human ACHN cells assessed as cellular growth at 10 uM by SRB assay.
Assay [8] concerns SK-MEL-28. The assay can be described thus: Cytotoxicity against human SK-MEL-28 cells assessed as cellular growth at 10 uM by SRB assay.
Assay [9] has as its system NCI-H226. The assay can be described thus: Cytotoxicity against human NCI-H226 cells assessed as cellular growth at 10 uM by SRB assay.
Assay [10] has as its system Malme-3M. The assay can be described thus: Cytotoxicity against human MALME-3M cells assessed as cellular growth at 10 uM by SRB assay.
The subject of assay [11] is Hs-578T. Description: Cytotoxicity against human Hs578T cells assessed as cellular growth at 10 uM by SRB assay.
Assay [12] deals with MDA-MB-231. Description: Cytotoxicity against human MDA-MB-231 cells assessed as cellular growth at 10 uM by SRB assay.
The subject of assay [13] is MOLT-4. The assay can be described thus: Cytotoxicity against human MOLT4 cells assessed as cellular growth at 10 uM by SRB assay.
In assay [14] the test system is LOX IMVI. The assay can be described thus: Cytotoxicity against human LOXIMVI cells assessed as cellular growth at 10 uM by SRB assay.
Assay [15] concerns SF-268. Description: Cytotoxicity against human SF268 cells assessed as cellular growth at 10 uM by SRB assay.
The subject of assay [16] is HCT-116. Description: Cytotoxicity against human HCT116 cells assessed as cellular growth at 10 uM by SRB assay.
Assay [17] concerns K562. Description: Cytotoxicity against human K562 cells assessed as cellular growth at 10 uM by SRB assay.
Assay [18] has as its system HT-29. The assay can be described thus: Cytotoxicity against human HT-29 cells assessed as cellular growth at 10 uM by SRB assay.
Assay [19] has as its system MDA-MB-435. Description: Cytotoxicity against human MDA-MB-435 cells assessed as cellular growth at 10 uM by SRB assay.
The test system of assay [20] is OVCAR-3. Description: Cytotoxicity against human OVCAR3 cells assessed as cellular growth at 10 uM by SRB assay.

Regarding `COc1cc(/C=c2/sc3nc4ccccc4n3c2=O)cc(I)c1O`, the Activity in [1] is on record as 81.81%; in assay [2], 93.08%; in [3], 107.28%; in assay [4] it was 101.47%; in assay [5], 112.47%; in [6], 79.77%. Moreover, the Activity is given as 107.3% in assay [7]; 111.82% in assay [8]; 94.19% in assay [9]; 109% in assay [10]; 107.68% in assay [11]; 107.43% in assay [12]. The Activity is given as 78.31% in [13]; 93.01% in assay [14]; 99.48% in [15]; 98.72% in assay [16]; 51.46% in assay [17]; 104.58% in assay [18]. Moreover, the figures for the Activity in assay [19] and in assay [20] were 97.54% and 97.63%, respectively.

On to `O=c1/c(=C/c2ccccc2Cl)sc2nc(-c3ccccc3)nn12`, for which the Activity in [1] is listed as 66.88%; in assay [2] it was 107.46%; in [3], 76.15%; in [4], 103.3%; in assay [5] it was 94.89%; in [6], 98.22%. Further, the Activity in [7] is recorded as 97.57%; in assay [8] it was 109.04%; in assay [9], 100.04%; in assay [10] it was 92.95%; in [11], 89.46%; in assay [12], 90.97%. Moreover, the Activity in assay [13] was 69.85%; in assay [14] it was 63.33%; in [15] it was 91.24%; in [16] it was 72.43%; in assay [17] it was 48.93%; in assay [18] it was 112.54%. Further, the Activity came to 78.08% in [19] and 108.39% in assay [20].

In the case of `O=C(Nc1nc2ccc(Cl)cc2s1)c1ccc(Cl)cc1Cl`, the Activity came to 92.55% in assay [1]; 111.18% in assay [2]; 115.13% in assay [3]; 106.54% in [4]; 101.57% in [5]; 79.85% in assay [6]. In addition, the Activity in [7] was determined as 109.65%; in assay [8] it was 107.5%; in assay [9], 101.52%; in assay [10], 109.41%; in assay [11] it was 113.99%; in assay [12] it was 114.66%. Besides, the Activity in [13] stood at 93.88%; in [14] it was 98.46%; in [15], 111.47%; in [16], 105.32%; in assay [17] it was 86.31%; in assay [18] it was 94.25%. For the same molecule, the Activity in assay [19] came to 94.59%; in assay [20], 109.17%.

As for `Cc1ccc(Cl)cc1NC(=O)c1sc2nc3c(cc2c1N)C(=O)CCC3`, the Activity was 82.22% in [1]; 36.54% in assay [2]; 62.9% in [3]; 60.95% in [4]; 47.69% in assay [5]; 41.45% in assay [6]. In addition, the Activity in assay [7] is 55.94%; in [8], 67.01%; in [9] it was 88.29%; in [10], 81.13%; in [11] it was 60.85%; in assay [12] it was 80.03%. In addition, the Activity in assay [13] was determined as 84.85%; in [14], 68.07%; in assay [15], 74.86%; in [16], 67.98%; in assay [17], 33.61%; in assay [18] it was 28.78%. Also, the Activity in assay [19] is recorded as -3.04%; in assay [20], 22.12%.

Turning to `Cc1cccc(-c2nc(-c3cccs3)no2)c1`, the Activity in [1] worked out at 96%; in [2], 90.68%; in assay [3], 102.43%; in assay [4], 79.48%; in [5], 115.88%; in assay [6], 77.92%. Besides, the Activity in assay [7] was determined as 99.9%; in assay [8] it was 109.6%; in assay [9], 94.62%; in assay [10], 112.31%; in [11], 81.63%; in assay [12] it was 76.61%. For the same molecule, the Activity worked out at 96.35% in assay [13]; 95.98% in [14]; 112.75% in assay [15]; 96.5% in assay [16]; 94.59% in assay [17]; 98.29% in [18]. Also, the values for the Activity in [19] and in assay [20] were 110.16% and 104%, respectively.

For `O=C(Nc1ccc2oc(=O)ccc2c1)c1ccc(-c2ccc(Br)cc2)o1`, the Activity in [1] is listed as 101.52%; in assay [2], 107.9%; in assay [3] it was 114.52%; in assay [4], 106.69%; in [5] it was 101.06%; in [6], 183.36%. Further, the Activity in assay [7] came out at 121.66%; in assay [8], 119.2%; in [9] it was 112.35%; in [10], 130.92%; in assay [11], 104.83%; in assay [12] it was 104.85%. Further, the Activity in assay [13] was 96.93%; in [14], 105.3%; in [15] it was 106.9%; in [16], 103.94%; in assay [17], 95.77%; in [18], 108.43%. For the same molecule, the Activity is on record as 112.48% in assay [19] and 125.42% in assay [20].

Turning to `COc1ccc2[nH]c(C(=O)NCc3ccccc3)cc2c1`, the Activity in assay [1] was determined as 95.91%; in [2], 107.28%; in assay [3], 104.15%; in assay [4], 104.71%; in [5], 101.58%; in assay [6], 87.15%. Moreover, the Activity in assay [7] came out at 94.48%; in [8], 110.55%; in [9], 96.37%; in [10], 88.8%; in assay [11], 112.57%; in assay [12], 91.31%. Besides, the Activity in [13] was 83.12%; in assay [14], 103.84%; in assay [15], 114.89%; in assay [16] it was 94.88%; in assay [17] it was 92.68%; in assay [18], 102.88%. Moreover, the Activity in assay [19] is 104.78%; in assay [20], 112.21%.

On to `N#Cc1ccc(-n2nnc3ccccc32)cc1C#N`, for which the Activity in [1] is on record as 107.7%; in assay [2] it was 94.36%; in assay [3], 106.26%; in assay [4], 94.62%; in assay [5], 101.14%; in assay [6], 85.44%. In addition, the Activity in assay [7] amounted to 102.68%; in assay [8], 104.11%; in assay [9], 96.73%; in assay [10], 96.58%; in assay [11], 105.04%; in assay [12], 111.41%. For the same molecule, the Activity in assay [13] was 93.32%; in assay [14] it was 99.41%; in assay [15], 105%; in assay [16] it was 102.06%; in assay [17], 92.97%; in [18] it was 108.03%. Moreover, the Activity came to 85.25% in [19] and 101.15% in assay [20].

For `Cc1ccc(NC(=O)c2sc3nc4c(cc3c2N)C(=O)CCC4)c(Br)c1`, the Activity in [1] turned out to be 111.67%; in assay [2], 97.41%; in assay [3] it was 105.12%; in assay [4], 95.12%; in assay [5], 108.91%; in assay [6], 94.2%. For the same molecule, the Activity worked out at 107.36% in assay [7]; 107.72% in assay [8]; 99.85% in assay [9]; 95.81% in assay [10]; 100.84% in [11]; 118.27% in [12]. For the same molecule, the Activity came out at 103.27% in assay [13]; 102.77% in [14]; 100.61% in [15]; 106.38% in assay [16]; 104.86% in [17]; 107.12% in assay [18]. The Activity stood at 94.29% in assay [19] and 101.82% in [20].
